Measured values as given in US4732970A, “Antitumor amino acid and peptide derivatives of 1,4-bis(aminoalkyl and hydroxy-aminoalkyl)amino)-5,8-dihydroxyanthraquinones” (priority 1986, dated 1988).
*1 amine or outer side, *2 acyl side, *3 side chain or, on linkers, in order; H or OH if unused. Where a SMILES comes first, the peptide text is derived from it. Bridges are numbered along the chain shown (N, C = ends). Roman numbers before positions name the chains, in order. X1 = O=C1c2c(O)ccc(O)c2C(=O)c2c(NCCN[*:2])ccc(NCCN[*:1])c21

Test system: lymphocytic leukemia P388
Assay: Lymphocytic Leukemia P388 Test
Format: in vivo, BDF1 mice
Settings: for response vs control in vivo at 0.75 mg/kg / response vs control in vivo at 1.5 mg/kg / response vs control in vivo at 3 mg/kg: Mus musculus, P388, ip, read-out: T/C × 100 (%); for Median Survival: BDF1 mice; for T/C × 100 (%): ratio of survival time treated/control
How it was run: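 BDF1 mice (5–6 per group) were inoculated i.p. with 10^6 P388 cells, then dosed i.p. on days 1, 5 and 9 at various doses. Survival was followed for 60 days, and median survival time and the treated/control (T/C) survival ratio were calculated.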

[1] = dose 0.75 mg/kg intraperitoneally on days 1, 5 and 9
[2] = dose 1.5 mg/kg intraperitoneally on days 1, 5 and 9
[3] = dose 3 mg/kg intraperitoneally on days 1, 5 and 9

Row | Compound | response vs control in vivo at 0.75 mg/kg [%] | response vs control in vivo at 1.5 mg/kg [%] | response vs control in vivo at 3 mg/kg [%] | Median Survival [1] [days] | Median Survival [2] [days] | Median Survival [3] [days] | T/C × 100 (%) [1] [%] | T/C × 100 (%) [2] [%] | T/C × 100 (%) [3] [%]
1 | Br.Br.C[C@H](NC(=O)[C@@H]1CCCN1C(=O)CNC(=O)CNC(=O)[C@@H]1CCCN1C(=O)CN)C(=O)NCCNc1ccc(NCCNC(=O)[C@H](C)NC(=O)[C@@H]2CCCN2C(=O)CNC(=O)CNC(=O)[C@@H]2CCCN2C(=O)CN)c2c1C(=O)c1c(O)ccc(O)c1C2=O [Example 64, N,N'-[(9,10-Dihydro-5,8-dihydroxy-9,10-dioxo-1,4-anthracenediyl)bis(imino-2,1-ethanediyl)]bis[glycyl-L-prolylglycylglycyl-L-prolyl-L-alaninamide]-dihydrobromide] (I: H-GPGGPA / II: H-GPGGPA; linker I:C-II:C via X1) | 195 | 205 | 255 | 19.5 | 20.5 | 25.5 |  |  | 
2 | CC(C)C[C@H](NC(=O)[C@H](C)NC(=O)OC(C)(C)C)C(=O)NCCNc1ccc(NCCNC(=O)[C@H](CC(C)C)NC(=O)[C@H](C)NC(=O)OC(C)(C)C)c2c1C(=O)c1c(O)ccc(O)c1C2=O [Example 65] |  |  |  | 12.0 | 12.0 | 13.5 | 109 | 109 | 123
3 | CC(C)C[C@H](NC(=O)[C@H](C)N)C(=O)NCCNc1ccc(NCCNC(=O)[C@H](CC(C)C)NC(=O)[C@H](C)N)c2c1C(=O)c1c(O)ccc(O)c1C2=O.O=C(O)C(F)(F)F.O=C(O)C(F)(F)F [Example 66, N,N'-[(9,10-Dihydro-5,8-dihydroxy-9,10-dioxo-1,4-anthracenediyl)bis(imino-2,1-ethanediyl)]bis[L-alanyl-L-leucinamide]bis(trifluoroacetate)] |  |  |  | 19.0 | 20.0 | 28.0 | 173 | 182 | 255
4 | CC(C)C[C@H](NC(=O)[C@H](C)NC(=O)[C@H](C)NC(=O)OC(C)(C)C)C(=O)NCCNc1ccc(NCCNC(=O)[C@H](CC(C)C)NC(=O)[C@H](C)NC(=O)[C@H](C)NC(=O)OC(C)(C)C)c2c1C(=O)c1c(O)ccc(O)c1C2=O [Example 67, N,N'-[(9,10-Dihydro-5,8-dihydroxy-9,10-dioxo-1,4-anthracenediyl)bis(imino-2,1-ethanediyl)]bis[N-[(1,1-dimethylethoxy)carbonyl]-L-alanyl-L-alanyl-L-leucinamide]] | 155 | 165 | 160 | 15.5 | 16.5 | 16.0 |  |  | 
5 | CC(C)C[C@H](NC(=O)[C@H](C)NC(=O)[C@H](C)N)C(=O)NCCNc1ccc(NCCNC(=O)[C@H](CC(C)C)NC(=O)[C@H](C)NC(=O)[C@H](C)N)c2c1C(=O)c1c(O)ccc(O)c1C2=O.O=C(O)C(F)(F)F.O=C(O)C(F)(F)F [Example 68] |  |  |  | 21.0 | 21.5 | 22.0 | 210 | 215 | 220
6 | CC(C)C[C@H](NC(=O)CNC(=O)CNC(=O)OCc1ccccc1)C(=O)NCCNc1ccc(NCCNC(=O)[C@H](CC(C)C)NC(=O)CNC(=O)CNC(=O)OCc2ccccc2)c2c1C(=O)c1c(O)ccc(O)c1C2=O [Example 69, N,N'-[(9,10-Dihydro-5,8-dihydroxy-9,10-dioxo-1,4-anthracenediyl)bis(imino-2,1-ethanediyl)]bis[N-[(phenylmethoxy)carbonyl]glycylglycyl-L-leucinamide]] | 170 | 170 | 180 | 17.0 | 17.0 | 18.0 |  |  | 
